# Test results from the kinase profiling compilation of Christmann-Franck et al. (2016).
# Tests used:
# Assay in all cases: KINOMEscan competition binding
# Settings in all cases: compound 10.0 µM
# [1] = biological target: MAPK13 (human) (UniProt O15264)
# [2] = biological target: MAPK3 (human) (UniProt P27361)
# [3] = biological target: TLK1 (human) (UniProt Q9UKI8)
# [4] = biological target: AAK1 (human) (UniProt Q2M2I8)
# [5] = biological target: IKBKB (human) (UniProt O14920)
# [6] = biological target: MAPK14 (human) (UniProt Q16539)
# [7] = biological target: MARK1 (human) (UniProt Q9P0L2)
# [8] = biological target: MAP2K4 (human) (UniProt P45985)
# [9] = biological target: RAF1 (human) (UniProt P04049)
# [10] = biological target: NTRK2 (human) (UniProt Q16620)
# [11] = biological target: TTK (human) (UniProt P33981)
# [12] = biological target: RPS6KA4 KD2 (human) (UniProt O75676)
# [13] = biological target: AURKC (human) (UniProt Q9UQB9)
# [14] = biological target: STK32C (human) (UniProt Q86UX6)
# [15] = biological target: GSK3B (human) (UniProt P49841)
# [16] = biological target: SIK1 (human) (UniProt P57059)
# [17] = biological target: CDC42BPA (human) (UniProt Q5VT25)
# [18] = biological target: CDK18 (human) (UniProt Q07002)
# [19] = biological target: FRK (human) (UniProt P42685)
# [20] = biological target: MARK4 (human) (UniProt Q96L34)
# [21] = biological target: ACVRL1 (human) (UniProt P37023)
# [22] = biological target: MKNK1 (human) (UniProt Q9BUB5)
# [23] = biological target: PIM2 (human) (UniProt Q9P1W9)
# [24] = biological target: RPS6KA5 KD1 (human) (UniProt O75582)
# [25] = test system: FLT3 (human), P36888 [ITD]
# [26] = biological target: CAMK2A (human) (UniProt Q9UQM7)
# [27] = biological target: SYK (human) (UniProt P43405)
# [28] = biological target: DDR2 (human) (UniProt Q16832)
# [29] = biological target: WEE1 (human) (UniProt P30291)
# [30] = biological target: STK11 (human) (UniProt Q15831)
# [31] = biological target: CAMK2D (human) (UniProt Q13557)
# [32] = biological target: FYN (human) (UniProt P06241)
# [33] = biological target: PAK4 (human) (UniProt O96013)
# [34] = biological target: DYRK1B (human) (UniProt Q9Y463)
# [35] = biological target: MAP4K3 (human) (UniProt Q8IVH8)
# [36] = biological target: STK36 (human) (UniProt Q9NRP7)
# [37] = biological target: MAP4K1 (human) (UniProt Q92918)
# [38] = biological target: CDK8 (human) (UniProt P49336)
# [39] = biological target: EPHB1 (human) (UniProt P54762)
# [40] = biological target: NEK2 (human) (UniProt P51955)
# Chain of DYRK1B (human) (Q9Y463 whole entry, looked up): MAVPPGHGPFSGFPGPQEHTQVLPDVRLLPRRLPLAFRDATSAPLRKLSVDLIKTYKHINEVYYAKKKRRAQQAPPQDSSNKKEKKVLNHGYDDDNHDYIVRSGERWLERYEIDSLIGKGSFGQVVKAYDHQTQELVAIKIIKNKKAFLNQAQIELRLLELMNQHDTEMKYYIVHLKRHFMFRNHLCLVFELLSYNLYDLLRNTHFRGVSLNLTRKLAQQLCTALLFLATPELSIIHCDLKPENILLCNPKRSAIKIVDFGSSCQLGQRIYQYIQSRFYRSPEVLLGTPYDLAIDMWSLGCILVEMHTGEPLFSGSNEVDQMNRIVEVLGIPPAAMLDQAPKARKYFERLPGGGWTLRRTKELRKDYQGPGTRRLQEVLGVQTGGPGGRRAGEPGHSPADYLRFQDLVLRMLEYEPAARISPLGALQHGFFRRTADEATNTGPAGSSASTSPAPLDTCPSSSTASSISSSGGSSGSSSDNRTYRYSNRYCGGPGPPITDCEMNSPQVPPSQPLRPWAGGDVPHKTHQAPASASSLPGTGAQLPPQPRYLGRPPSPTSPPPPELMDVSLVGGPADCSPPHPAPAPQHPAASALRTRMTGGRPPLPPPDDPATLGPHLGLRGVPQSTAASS
# Chain of MAPK14 (human) (Q16539 whole entry, looked up): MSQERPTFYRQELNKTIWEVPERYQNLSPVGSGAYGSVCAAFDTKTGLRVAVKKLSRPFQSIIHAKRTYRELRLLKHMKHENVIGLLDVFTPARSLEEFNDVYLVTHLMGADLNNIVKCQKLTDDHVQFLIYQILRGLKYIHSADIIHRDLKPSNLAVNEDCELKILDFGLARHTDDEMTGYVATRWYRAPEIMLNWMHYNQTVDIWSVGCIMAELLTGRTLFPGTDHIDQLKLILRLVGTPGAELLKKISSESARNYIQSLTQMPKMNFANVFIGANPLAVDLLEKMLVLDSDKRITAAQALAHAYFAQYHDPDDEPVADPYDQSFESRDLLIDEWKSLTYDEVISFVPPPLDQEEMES
# Chain of RPS6KA4 KD2 (human) (O75676 whole entry, looked up): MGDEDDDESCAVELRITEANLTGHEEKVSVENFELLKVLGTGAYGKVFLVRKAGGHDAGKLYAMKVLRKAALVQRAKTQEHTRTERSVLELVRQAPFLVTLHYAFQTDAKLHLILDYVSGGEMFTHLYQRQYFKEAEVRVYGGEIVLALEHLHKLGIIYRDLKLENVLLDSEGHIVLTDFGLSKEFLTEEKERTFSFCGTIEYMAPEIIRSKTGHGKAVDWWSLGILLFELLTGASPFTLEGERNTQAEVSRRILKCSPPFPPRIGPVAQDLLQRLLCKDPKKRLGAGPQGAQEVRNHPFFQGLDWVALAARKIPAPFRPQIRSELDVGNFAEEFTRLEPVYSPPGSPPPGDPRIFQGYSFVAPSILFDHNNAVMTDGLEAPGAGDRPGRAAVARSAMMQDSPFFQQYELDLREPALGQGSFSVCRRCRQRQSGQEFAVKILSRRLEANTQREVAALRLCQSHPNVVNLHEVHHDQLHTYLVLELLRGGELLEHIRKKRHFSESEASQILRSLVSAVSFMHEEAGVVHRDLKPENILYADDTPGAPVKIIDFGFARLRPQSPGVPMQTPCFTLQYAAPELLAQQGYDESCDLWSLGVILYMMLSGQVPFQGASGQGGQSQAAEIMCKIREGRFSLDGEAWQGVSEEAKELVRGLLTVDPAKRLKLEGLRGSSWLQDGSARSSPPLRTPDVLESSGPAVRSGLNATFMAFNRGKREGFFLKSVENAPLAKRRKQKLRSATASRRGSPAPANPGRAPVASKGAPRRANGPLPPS
# Chain of MAP4K3 (human) (Q8IVH8 whole entry, looked up): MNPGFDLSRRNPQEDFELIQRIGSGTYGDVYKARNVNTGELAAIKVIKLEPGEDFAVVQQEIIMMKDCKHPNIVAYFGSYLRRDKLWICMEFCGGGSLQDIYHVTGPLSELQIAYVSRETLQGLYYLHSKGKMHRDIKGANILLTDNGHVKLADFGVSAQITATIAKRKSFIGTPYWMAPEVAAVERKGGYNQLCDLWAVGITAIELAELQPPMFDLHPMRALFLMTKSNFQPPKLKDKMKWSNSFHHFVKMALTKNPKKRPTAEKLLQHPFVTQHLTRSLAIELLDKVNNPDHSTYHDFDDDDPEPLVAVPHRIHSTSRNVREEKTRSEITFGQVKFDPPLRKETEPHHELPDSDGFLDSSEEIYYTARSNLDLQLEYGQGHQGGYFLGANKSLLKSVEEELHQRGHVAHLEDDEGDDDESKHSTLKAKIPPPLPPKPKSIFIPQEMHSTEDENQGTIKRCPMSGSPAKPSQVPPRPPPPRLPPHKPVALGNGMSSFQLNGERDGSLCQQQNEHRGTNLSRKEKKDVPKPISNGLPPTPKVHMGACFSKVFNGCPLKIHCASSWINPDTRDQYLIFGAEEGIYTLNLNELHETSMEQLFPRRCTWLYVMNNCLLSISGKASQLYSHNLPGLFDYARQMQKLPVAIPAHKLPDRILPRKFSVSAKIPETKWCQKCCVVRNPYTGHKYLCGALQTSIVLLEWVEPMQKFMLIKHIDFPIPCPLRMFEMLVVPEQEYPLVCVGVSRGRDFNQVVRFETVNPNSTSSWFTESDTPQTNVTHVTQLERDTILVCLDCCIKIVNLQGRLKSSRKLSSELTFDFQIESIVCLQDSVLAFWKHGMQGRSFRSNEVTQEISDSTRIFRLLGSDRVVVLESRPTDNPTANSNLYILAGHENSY
# Chain of MAP2K4 (human) (P45985 whole entry, looked up): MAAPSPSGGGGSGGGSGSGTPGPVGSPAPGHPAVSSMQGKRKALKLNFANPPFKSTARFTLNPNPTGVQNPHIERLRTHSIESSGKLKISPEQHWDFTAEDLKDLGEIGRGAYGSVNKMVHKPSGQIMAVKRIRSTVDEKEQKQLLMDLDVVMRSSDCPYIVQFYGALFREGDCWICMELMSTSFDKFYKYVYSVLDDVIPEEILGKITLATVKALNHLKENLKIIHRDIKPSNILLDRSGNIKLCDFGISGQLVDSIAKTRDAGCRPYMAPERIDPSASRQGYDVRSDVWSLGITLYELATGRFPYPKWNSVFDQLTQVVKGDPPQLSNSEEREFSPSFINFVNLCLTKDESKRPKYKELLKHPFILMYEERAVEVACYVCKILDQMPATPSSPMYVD
# Chain of MKNK1 (human) (Q9BUB5 whole entry, looked up): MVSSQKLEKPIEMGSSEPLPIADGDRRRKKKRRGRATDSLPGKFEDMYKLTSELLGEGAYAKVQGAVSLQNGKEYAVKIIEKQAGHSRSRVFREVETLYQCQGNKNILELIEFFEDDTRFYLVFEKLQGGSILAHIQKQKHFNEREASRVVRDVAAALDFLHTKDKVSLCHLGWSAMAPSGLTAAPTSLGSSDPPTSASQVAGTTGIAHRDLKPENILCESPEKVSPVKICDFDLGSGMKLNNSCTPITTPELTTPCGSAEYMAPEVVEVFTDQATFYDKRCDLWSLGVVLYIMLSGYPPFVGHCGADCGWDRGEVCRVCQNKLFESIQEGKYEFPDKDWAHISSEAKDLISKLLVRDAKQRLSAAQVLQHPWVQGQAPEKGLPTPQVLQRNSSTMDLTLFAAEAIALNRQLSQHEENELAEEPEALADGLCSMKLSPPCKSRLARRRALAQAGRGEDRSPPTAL
# Chain of AURKC (human) (Q9UQB9 whole entry, looked up): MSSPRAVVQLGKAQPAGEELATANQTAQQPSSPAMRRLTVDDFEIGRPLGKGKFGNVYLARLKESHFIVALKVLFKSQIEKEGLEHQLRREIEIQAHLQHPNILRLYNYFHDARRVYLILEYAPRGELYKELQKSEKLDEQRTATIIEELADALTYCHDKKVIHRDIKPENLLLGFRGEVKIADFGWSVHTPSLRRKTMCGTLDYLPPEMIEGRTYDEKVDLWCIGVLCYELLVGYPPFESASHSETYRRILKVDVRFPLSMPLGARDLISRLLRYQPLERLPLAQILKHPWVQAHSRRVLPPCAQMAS
# Chain of PAK4 (human) (O96013 whole entry, looked up): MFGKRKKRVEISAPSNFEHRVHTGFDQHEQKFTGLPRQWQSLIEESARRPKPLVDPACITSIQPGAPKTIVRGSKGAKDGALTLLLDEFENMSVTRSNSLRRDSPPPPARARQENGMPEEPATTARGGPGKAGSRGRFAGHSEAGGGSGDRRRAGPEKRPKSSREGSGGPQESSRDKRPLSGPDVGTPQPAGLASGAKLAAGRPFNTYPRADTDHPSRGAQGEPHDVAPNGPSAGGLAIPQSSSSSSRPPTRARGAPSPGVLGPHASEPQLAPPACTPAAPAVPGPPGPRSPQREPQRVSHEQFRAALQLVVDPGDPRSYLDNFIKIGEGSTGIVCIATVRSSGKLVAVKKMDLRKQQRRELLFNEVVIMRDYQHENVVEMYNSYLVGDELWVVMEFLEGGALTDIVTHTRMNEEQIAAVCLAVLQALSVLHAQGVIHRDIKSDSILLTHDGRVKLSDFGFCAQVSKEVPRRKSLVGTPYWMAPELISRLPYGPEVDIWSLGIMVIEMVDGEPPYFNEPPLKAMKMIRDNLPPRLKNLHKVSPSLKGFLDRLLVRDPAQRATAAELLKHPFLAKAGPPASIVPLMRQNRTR
# Chain of MAPK13 (human) (O15264 whole entry, looked up): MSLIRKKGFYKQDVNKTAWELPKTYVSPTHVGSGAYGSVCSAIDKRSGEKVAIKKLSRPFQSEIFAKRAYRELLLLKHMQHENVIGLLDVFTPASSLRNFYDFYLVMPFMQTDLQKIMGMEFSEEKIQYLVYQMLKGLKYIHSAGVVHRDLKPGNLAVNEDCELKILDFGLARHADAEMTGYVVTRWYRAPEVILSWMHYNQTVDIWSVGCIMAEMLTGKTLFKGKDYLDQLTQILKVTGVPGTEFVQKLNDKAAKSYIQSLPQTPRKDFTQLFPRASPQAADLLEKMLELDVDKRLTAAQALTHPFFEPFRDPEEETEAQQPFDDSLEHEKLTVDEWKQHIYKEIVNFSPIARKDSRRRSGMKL
Compound,"kinase still bound, per cent of control [1] [%]","kinase still bound, per cent of control [2] [%]","kinase still bound, per cent of control [3] [%]","kinase still bound, per cent of control [4] [%]","kinase still bound, per cent of control [5] [%]","kinase still bound, per cent of control [6] [%]","kinase still bound, per cent of control [8] [%]","kinase still bound, per cent of control [9] [%]","kinase still bound, per cent of control [11] [%]","kinase still bound, per cent of control [12] [%]","kinase still bound, per cent of control [14] [%]","kinase still bound, per cent of control [15] [%]","kinase still bound, per cent of control [16] [%]","kinase still bound, per cent of control [17] [%]","kinase still bound, per cent of control [18] [%]","kinase still bound, per cent of control [19] [%]","kinase still bound, per cent of control [20] [%]","kinase still bound, per cent of control [21] [%]","kinase still bound, per cent of control [22] [%]","kinase still bound, per cent of control [23] [%]",other results
COc1cc(C(=O)NC2CCN(C)CC2)ccc1Nc1ncc2c(n1)N(C1CCCC1)CCC(=O)N2C(C)C,100,100,100,100,100,100,100,100,100,100,100,100,100,100,100,100,0,100,100,100,"kinase still bound, per cent of control [7]: 100%; kinase still bound, per cent of control [10]: 100%; kinase still bound, per cent of control [13]: 100%; kinase still bound, per cent of control [24]: 100%; kinase still bound, per cent of control [25]: 100%; kinase still bound, per cent of control [26]: 100%; kinase still bound, per cent of control [27]: 100%; kinase still bound, per cent of control [28]: 100%; kinase still bound, per cent of control [29]: 100%; kinase still bound, per cent of control [30]: 100%; kinase still bound, per cent of control [31]: 100%; kinase still bound, per cent of control [32]: 100%; kinase still bound, per cent of control [33]: 100%; kinase still bound, per cent of control [34]: 100%; kinase still bound, per cent of control [35]: 100%; kinase still bound, per cent of control [36]: 100%; kinase still bound, per cent of control [37]: 100%; kinase still bound, per cent of control [38]: 100%; kinase still bound, per cent of control [39]: 100%; kinase still bound, per cent of control [40]: 100%"
COc1cc(N2CCN(C)CC2)ccc1Nc1nc(N)c(C(=O)c2c(Cl)cccc2Cl)s1,63,100,86,61,96,94,70,100,20,100,99,100,86,100,78,43,82,84,51,100,"kinase still bound, per cent of control [10]: 80%; kinase still bound, per cent of control [13]: 100%; kinase still bound, per cent of control [24]: 100%; kinase still bound, per cent of control [25]: 87%; kinase still bound, per cent of control [26]: 20%; kinase still bound, per cent of control [27]: 59%; kinase still bound, per cent of control [28]: 100%; kinase still bound, per cent of control [29]: 100%; kinase still bound, per cent of control [30]: 100%; kinase still bound, per cent of control [31]: 23%; kinase still bound, per cent of control [32]: 89%; kinase still bound, per cent of control [33]: 100%; kinase still bound, per cent of control [34]: 42%; kinase still bound, per cent of control [35]: 100%; kinase still bound, per cent of control [36]: 100%; kinase still bound, per cent of control [37]: 90%; kinase still bound, per cent of control [38]: 100%; kinase still bound, per cent of control [39]: 87%; kinase still bound, per cent of control [40]: 100%"
Cc1cc([C@@H](C)Nc2ccccc2C(=O)O)c2nc(N3CCOCC3)cc(=O)n2c1,87,95,96,95,90,97,100,100,100,100,82,100,100,96,100,83,100,89,92,70,"kinase still bound, per cent of control [7]: 100%; kinase still bound, per cent of control [13]: 93%; kinase still bound, per cent of control [24]: 81%; kinase still bound, per cent of control [25]: 53%; kinase still bound, per cent of control [26]: 75%; kinase still bound, per cent of control [27]: 100%; kinase still bound, per cent of control [28]: 83%; kinase still bound, per cent of control [29]: 100%; kinase still bound, per cent of control [30]: 98%; kinase still bound, per cent of control [31]: 95%; kinase still bound, per cent of control [32]: 100%; kinase still bound, per cent of control [33]: 100%; kinase still bound, per cent of control [35]: 88%; kinase still bound, per cent of control [36]: 100%; kinase still bound, per cent of control [37]: 100%; kinase still bound, per cent of control [38]: 79%; kinase still bound, per cent of control [39]: 98%; kinase still bound, per cent of control [40]: 71%"
CCCS(=O)(=O)Nc1ccc(F)c(C(=O)c2c[nH]c3ncc(-c4ccc(Cl)cc4)cc23)c1F,100,100,95,100,100,70,5,0.95,57,96,100,100,2.8,80,100,16,100,65,70,96,"kinase still bound, per cent of control [7]: 100%; kinase still bound, per cent of control [10]: 78%; kinase still bound, per cent of control [24]: 98%; kinase still bound, per cent of control [26]: 100%; kinase still bound, per cent of control [27]: 66%; kinase still bound, per cent of control [28]: 35%; kinase still bound, per cent of control [29]: 100%; kinase still bound, per cent of control [30]: 75%; kinase still bound, per cent of control [31]: 100%; kinase still bound, per cent of control [32]: 9.1%; kinase still bound, per cent of control [33]: 86%; kinase still bound, per cent of control [34]: 100%; kinase still bound, per cent of control [35]: 56%; kinase still bound, per cent of control [36]: 4.6%; kinase still bound, per cent of control [37]: 20%; kinase still bound, per cent of control [38]: 4.6%; kinase still bound, per cent of control [39]: 100%; kinase still bound, per cent of control [40]: 71%"
